Data reported in patent publication EP4623909A1, “PHARMACEUTICAL COMPOSITION FOR TREATING OR RELIEVING COVID-19 AND FORMULATION COMPRISING SAME” (priority 2022, dated 2024).

System: Delta strain of novel coronavirus
Type: in vivo, K18-hACE2 transgenic mice

What does the source list for `N#C[C@@]1(c2ccc3c(N)ncnn23)O[C@H](COC(=O)C2CCCCC2)[C@@H](O)[C@H]1O` [ATV014]?
viral load in the lungs (antiviral effect) ([…], ATV014 100 mg/kg, Compound 1 150 mg/kg, once daily, intragastric, versus vehicle control): significant antiviral effects; anti-novel coronavirus effects in the mouse model (conclusion, ATV014 100 mg/kg, Compound 1 150 mg/kg): significant anti-novel coronavirus effects; reduction of viral load (mouse, in vivo): could reduce the viral load to varying degrees
